Test results reported in patent US9926281B2 (priority 2014, dated 2018).

How the values were obtained:
[1] = molecular target: human ADAMTS-5 (Homo sapiens (Human), UniProt Q9UNA0); details: read-out: hADAMTS-5 potency IC50
Experimental: Finally, the fluorescence is read on the Envision (Perkin Elmer) after an incubation of 90 min at 37° C.

[2] = molecular target: human TACE (Homo sapiens (Human), UniProt P78536); details: read-out: TACE potency IC50
human TACE, sequence (P78536 whole entry, looked up, change not shown): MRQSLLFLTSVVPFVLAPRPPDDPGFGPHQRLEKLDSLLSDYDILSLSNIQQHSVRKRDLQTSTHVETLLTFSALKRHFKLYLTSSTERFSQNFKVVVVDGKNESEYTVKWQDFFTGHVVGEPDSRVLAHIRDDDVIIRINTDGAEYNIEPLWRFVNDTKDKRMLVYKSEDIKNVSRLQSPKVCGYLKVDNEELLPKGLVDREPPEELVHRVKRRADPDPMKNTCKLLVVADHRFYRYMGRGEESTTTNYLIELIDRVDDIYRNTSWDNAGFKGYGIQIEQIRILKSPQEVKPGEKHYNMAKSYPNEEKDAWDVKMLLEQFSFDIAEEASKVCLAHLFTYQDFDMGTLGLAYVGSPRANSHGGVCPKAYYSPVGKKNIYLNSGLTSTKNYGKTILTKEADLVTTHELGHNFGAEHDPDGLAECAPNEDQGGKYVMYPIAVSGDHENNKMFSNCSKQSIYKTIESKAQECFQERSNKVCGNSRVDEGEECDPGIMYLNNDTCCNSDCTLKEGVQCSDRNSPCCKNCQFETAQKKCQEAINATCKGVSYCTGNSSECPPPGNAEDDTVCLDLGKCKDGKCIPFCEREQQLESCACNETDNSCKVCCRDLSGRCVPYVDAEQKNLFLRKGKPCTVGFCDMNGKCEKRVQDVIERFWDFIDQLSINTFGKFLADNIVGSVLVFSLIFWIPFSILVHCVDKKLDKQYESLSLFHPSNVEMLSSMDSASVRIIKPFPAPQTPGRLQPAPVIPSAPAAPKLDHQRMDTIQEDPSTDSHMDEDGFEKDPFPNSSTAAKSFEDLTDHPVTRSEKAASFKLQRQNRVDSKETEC

human ADAMTS-5, sequence (Q9UNA0 262-930): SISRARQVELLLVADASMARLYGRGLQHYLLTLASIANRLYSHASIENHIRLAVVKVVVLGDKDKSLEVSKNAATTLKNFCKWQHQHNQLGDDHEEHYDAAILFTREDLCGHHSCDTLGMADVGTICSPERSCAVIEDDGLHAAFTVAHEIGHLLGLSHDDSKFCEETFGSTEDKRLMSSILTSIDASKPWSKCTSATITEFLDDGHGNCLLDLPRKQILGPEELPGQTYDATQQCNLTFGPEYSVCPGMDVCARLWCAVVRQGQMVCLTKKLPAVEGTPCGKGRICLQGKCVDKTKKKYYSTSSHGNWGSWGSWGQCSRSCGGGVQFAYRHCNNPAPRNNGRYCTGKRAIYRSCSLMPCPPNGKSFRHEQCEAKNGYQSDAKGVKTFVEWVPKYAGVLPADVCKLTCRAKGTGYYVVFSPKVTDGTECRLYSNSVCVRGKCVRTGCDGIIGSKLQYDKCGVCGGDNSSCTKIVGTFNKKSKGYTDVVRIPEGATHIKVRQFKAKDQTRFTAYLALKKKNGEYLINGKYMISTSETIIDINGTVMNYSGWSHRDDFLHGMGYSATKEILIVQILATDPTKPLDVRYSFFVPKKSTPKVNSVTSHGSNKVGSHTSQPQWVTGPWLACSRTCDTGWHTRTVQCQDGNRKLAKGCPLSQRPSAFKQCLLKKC

Row | SMILES | IC50 [1] | IC50 [2]
1 | C[C@H]1CN(C(=O)CCC2(C3CC3)NC(=O)NC2=O)CCN1c1ccc(F)cc1 (stereo partly drawn) [compound 300, 5-cyclopropyl-5-[3-[(3S)-4-(4-fluorophenyl)-3-methyl-piperazin-1-yl]-3-oxo-propyl]imidazolidine-2,4-dione] | 140 nM | > 20000 nM
2 | C[C@H]1CN(C(=O)CCC2(C3CC3)NC(=O)NC2=O)CCN1c1ccnc(Cl)n1 (stereo partly drawn) [compound 301, 5-[3-[(3S)-4-(2-chloropyrimidin-4-yl)-3-methyl-piperazin-1-yl]-3-oxo-propyl]-5-cyclopropyl-imidazolidine-2,4-dione] | > 20000 nM | > 20000 nM
3 | Cc1cncc(N2CCN(C(=O)CCC3(C4CC4)NC(=O)NC3=O)C[C@@H]2C)c1 (stereo partly drawn) [compound 303, 5-cyclopropyl-5-[3-[(3S)-3-methyl-4-(5-methyl-3-pyridyl)piperazin-1-yl]-3-oxo-propyl]imidazolidine-2,4-dione] | 266 nM | > 20000 nM
4 | C[C@H]1CN(C(=O)CCC2(C3CC3)NC(=O)NC2=O)CCN1c1cncnc1 (stereo partly drawn) [compound 304, 5-cyclopropyl-5-[3-[(3S)-3-methyl-4-pyrimidin-5-yl-piperazin-1-yl]-3-oxo-propyl]imidazolidine-2,4-dione] | > 4000 nM | > 20000 nM
5 | Cc1ccc(N2CCN(C(=O)CCC3(C4CC4)NC(=O)NC3=O)C[C@@H]2C)cc1Cl (stereo partly drawn) [compound 306, 5-[3-[(3S)-4-(3-chloro-4-methyl-phenyl)-3-methyl-piperazin-1-yl]-3-oxo-propyl]-5-cyclopropyl-imidazolidine-2,4-dione] | 67 nM | > 4000 nM
6 | Cc1cccc(C2(CCC(=O)N3CCN(c4cc(Cl)cc(Cl)c4)[C@@H](C)C3)NC(=O)NC2=O)n1 (stereo partly drawn) [compound 310, 5-[3-[(3S)-4-(3,5-dichlorophenyl)-3-methyl-piperazin-1-yl]-3-oxo-propyl]-5-(6-methyl-2-pyridyl)imidazolidine-2,4-dione] | 50 nM | 1320 nM
7 | Cc1cccc(C2(CCC(=O)N3CCN(c4cccc(Cl)c4)[C@@H](C)C3)NC(=O)NC2=O)n1 (stereo partly drawn) [compound 311, 5-[3-[(3S)-4-(3-chlorophenyl)-3-methyl-piperazin-1-yl]-3-oxo-propyl]-5-(6-methyl-2-pyridyl)imidazolidine-2,4-dione] | 57 nM | 3070 nM
8 | Cc1cccc(C2(CCC(=O)N3CCN(c4ccc(Cl)cc4)[C@@H](C)C3)NC(=O)NC2=O)n1 (stereo partly drawn) [compound 312, 5-[3-[(3S)-4-(4-chlorophenyl)-3-methyl-piperazin-1-yl]-3-oxo-propyl]-5-(6-methyl-2-pyridyl)imidazolidine-2,4-dione] | 40 nM | 3680 nM
9 | C[C@H]1CN(C(=O)CCC2(c3cccnc3)NC(=O)NC2=O)CCN1c1ccc(Cl)c(F)c1 (stereo partly drawn) [compound 315, 5-[3-[(3S)-4-(4-chloro-3-fluoro-phenyl)-3-methyl-piperazin-1-yl]-3-oxo-propyl]-5-(3-pyridyl)imidazolidine-2,4-dione] | 42 nM | > 4000 nM
10 | C[C@H]1CN(C(=O)CCC2(c3cccnc3)NC(=O)NC2=O)CCN1c1cc(Cl)cc(Cl)c1 (stereo partly drawn) [compound 318, 5-[3-[(3S)-4-(3,5-dichlorophenyl)-3-methyl-piperazin-1-yl]-3-oxo-propyl]-5-(3-pyridyl)imidazolidine-2,4-dione] | 59 nM | 2190 nM
11 | C[C@H]1CN(C(=O)CCC2(C3CC3)NC(=O)NC2=O)CCN1c1cccc(-c2cncc(Cl)c2)c1 (stereo partly drawn) [compound 322, 5-[3-[(3S)-4-[3-(5-chloro-3-pyridyl)phenyl]-3-methyl-piperazin-1-yl]-3-oxo-propyl]-5-cyclopropyl-imidazolidine-2,4-dione] | 237 nM | > 4000 nM
12 | Cc1ncccc1-c1cccc(N2CCN(C(=O)CCC3(C4CC4)NC(=O)NC3=O)C[C@@H]2C)c1 (stereo partly drawn) [compound 323, 5-cyclopropyl-5-[3-[(3S)-3-methyl-4-[3-(2-methyl-3-pyridyl)phenyl]piperazin-1-yl]-3-oxo-propyl]imidazolidine-2,4-dione] | 1240 nM | > 4000 nM
13 | Cc1ccc(-c2cccc(N3CCN(C(=O)CCC4(C5CC5)NC(=O)NC4=O)C[C@@H]3C)c2)cn1 (stereo partly drawn) [compound 324, 5-cyclopropyl-5-[3-[(3S)-3-methyl-4-[3-(6-methyl-3-pyridyl)phenyl]piperazin-1-yl]-3-oxo-propyl]imidazolidine-2,4-dione] | 407 nM | > 4000 nM
14 | C[C@H]1CN(C(=O)CCC2(C3CC3)NC(=O)NC2=O)CCN1c1cc(Cl)ccn1 (stereo partly drawn) [compound 325, 5-[3-[(3S)-4-(4-chloro-2-pyridyl)-3-methyl-piperazin-1-yl]-3-oxo-propyl]-5-cyclopropyl-imidazolidine-2,4-dione] | 796 nM | > 20000 nM
15 | C[C@H]1CN(C(=O)CCC2(C3CC3)NC(=O)NC2=O)CCN1c1cccc2c1ccn2C (stereo partly drawn) [compound 328, 5-cyclopropyl-5-[3-[(3S)-3-methyl-4-(1-methylindol-4-yl)piperazin-1-yl]-3-oxo-propyl]imidazolidine-2,4-dione] | > 4000 nM | > 20000 nM
16 | Cc1cc(-c2cccc(N3CCN(C(=O)CCC4(C5CC5)NC(=O)NC4=O)C[C@@H]3C)c2)ccn1 (stereo partly drawn) [compound 329, 5-cyclopropyl-5-[3-[(3S)-3-methyl-4-[3-(2-methyl-4-pyridyl)phenyl]piperazin-1-yl]-3-oxo-propyl]imidazolidine-2,4-dione] | 134 nM | > 20000 nM
17 | C[C@H]1CN(C(=O)CCC2(C3CC3)NC(=O)NC2=O)CCN1c1cncc(C#N)c1 (stereo partly drawn) [compound 330, 5-[(2S)-4-[3-(4-cyclopropyl-2,5-dioxo-imidazolidin-4-yl)propanoyl]-2-methyl-piperazin-1-yl]pyridine-3-carbonitrile] | > 4000 nM | > 20000 nM
18 | C[C@H]1CN(C(=O)CCC2(C3CC3)NC(=O)NC2=O)CCN1c1cc(F)cc(C#N)c1 (stereo partly drawn) [compound 334, 3-[(2S)-4-[3-(4-cyclopropyl-2,5-dioxo-imidazolidin-4-yl)propanoyl]-2-methyl-piperazin-1-yl]-5-fluoro-benzonitrile] | 430 nM | > 20000 nM
19 | COc1cccc(C2(CCC(=O)N3CCN(c4cc(F)cc(F)c4)[C@@H](C)C3)NC(=O)NC2=O)n1 (stereo partly drawn) [compound 336, 5-[3-[(3S)-4-(3,5-difluorophenyl)-3-methyl-piperazin-1-yl]-3-oxo-propyl]-5-(6-methoxy-2-pyridyl)imidazolidine-2,4-dione] | 74 nM | > 4000 nM
20 | C[C@H]1CN(C(=O)CCC2(C3CC3)NC(=O)NC2=O)CCN1c1cnc2ccn(C)c2c1 (stereo partly drawn) [compound 337, 5-cyclopropyl-5-[3-[(3S)-3-methyl-4-(1-methylpyrrolo[3,2-b]pyridin-6-yl)piperazin-1-yl]-3-oxo-propyl]imidazolidine-2,4-dione] | 764 nM | > 20000 nM
21 | C[C@H]1CN(C(=O)CCC2(C3CC3)NC(=O)NC2=O)CCN1c1cc(F)cc(-c2cn[nH]c2)c1 (stereo partly drawn) [compound 338, 5-cyclopropyl-5-[3-[(3S)-4-[3-fluoro-5-(1H-pyrazol-4-yl)phenyl]-3-methyl-piperazin-1-yl]-3-oxo-propyl]imidazolidine-2,4-dione] | 60 nM | > 4000 nM
22 | C[C@H]1CN(C(=O)CCC2(C3CC3)NC(=O)NC2=O)CCN1c1ccc(F)c(-c2cn[nH]c2)c1 (stereo partly drawn) [compound 340, 5-cyclopropyl-5-[3-[(3S)-4-[4-fluoro-3-(1H-pyrazol-4-yl)phenyl]-3-methyl-piperazin-1-yl]-3-oxo-propyl]imidazolidine-2,4-dione] | 155 nM | > 4000 nM
